{"source": "patent US11549142B2", "about": "“CETP inhibitors for therapeutic use” (Hoffmann-La Roche Inc., priority 2013, dated 2023)", "test_system": "patients recently hospitalized for an Acute Coronary Syndrome (ACS)", "test": "dal-OUTCOMES phase III trial with pharmacogenomic (GWAS) analysis of cardiovascular events by ADCY9 genotype", "type": "in vivo, human", "parameters": "key to Predicted response: R: Responsive; PR: Partial Responsive; NR: Non Responsive", "experimental": "The dalcetrapib mortality and morbidity trial (dal-OUTCOMES) was a double-blind, randomized, placebo-controlled, parallel group, multi-centre study in stable CHD patients recently hospitalized for acute coronary syndrome (ACS). The study was conducted to test the hypothesis that CETP inhibition will reduce the risk of recurrent cardiovascular events in patients with recent ACS by raising levels of HDL-C through CETP inhibition. Eligible patients entered a single-blind placebo run-in period of approximately 4 to 6 weeks to allow for patients to stabilize and for completion of planned revascularization procedures. At the end of the run-in period, eligible patients in stable condition were randomized in a 1:1 ratio to 600 mg of dalcetrapib or placebo on top of evidence-based medical care for ACS. Dalcetrapib is an inhibitor of cholesterol-ester transfer protein (CETP). […] The trial was interrupted in May 2012 by the DSMB on grounds of futility.\nDal-OUTCOMES trial (NC20971) was a double blind, randomized, placebo-controlled, parallel group, multi-center, phase III study to assess the safety and efficacy of the CETP inhibitor dalcetrapib in patients recently hospitalized for an Acute Coronary Syndrome (ACS). At time of the interim analysis the study included 15871 randomized patients, distributed over two treatment arms: placebo (7933 patients) and dalcetrapib (600 mg daily; 7938 patients). […] The dal-OUTCOMES study details can be found in G. Schwartz et al., N. Engl. J. Med. 367; 22, 2012.\\\nWhole genome analysis was performed in GLP-environment at the Beaulieu-Saucier Pharmacogenomics Centre. The Infinium® HumanOmni25Exome-8v1_A BeadChip (Illumina, San Diego, Calif.) including 2,567,845 genomic markers was used and processed according to the manufacturer's specifications. Approximately 200 ng of genomic DNA was whole-genome amplified, fragmented, and hybridized to locus-specific probes bound to the surface of each BeadChip. DNA was genotyped using a fluorescently labelled single base extension assay. BeadChips were scanned and analyzed using the Illumina® iScan Reader. Infinium® process controls were monitored and all results were within manufacturer's specifications. Scanned images were analyzed using Illumina's GenomeStudio® version 2011.1 with the GenTrain 2.0 cluster algorithm, using a No-Call threshold of 0.15, without manual cluster adjustment and using the manufacturer's Illumina® HumanOmni25Exome-8v1_A cluster file. […] Three genotyping files in PLINK format generated by GenomeStudio® were combined and transformed to binary PLINK format.\nGenotyping completion rate for samples and SNPs was set to 98%. SNPs with genotyping plate bias (based on the 96 well plates used to dilute DNA samples) were flagged but not removed as the effect of genetic ancestry could not be excluded. Pairwise IBD was used to conduct close familial relationship checks. We flagged and removed all but one pair-member of related pairs and sample duplicates (IBS2*ratio>0.80) based on a selection of uncorrelated SNPs (r^2<0.1). The pairwise IBS matrix was used as a distance metric to identify cryptic relatedness among samples and sample outliers by multi-dimensional scaling (MDS). The first two MDS components of each subject were plotted including the genotypes of HapMap CEU, JPT-CHB, and YRI data (keeping only founder individuals). Outliers from the main Caucasian cluster were flagged and removed by k-nearest neighbour. (Supplementary FIG. 1) The scree plot and the cumulative explained variance were computed using the smartpca program of the EIGENSOFT suite (version 3.0). Options used were a numoutlieriter (maximum number of outlier removal iterations) of 0 (turned off) and altnormstyle (normalization formula) equal to NO. ^4 (Supplementary FIG. 2)\nA statistical analysis plan was developed at the Beaulieu-Saucier Pharmacogenomics Centre and the final version approved prior to genotyping completion in October 2012. […]", "note": "“And” between values parts separate entries of the source, which are not always exact repeats. Identical values can stand only once. “Also recorded” adds a separate entry of the source.", "data": [{"smiles": "CCC(CC)CC1(C(=O)Nc2ccccc2SC(=O)C(C)C)CCCCC1", "note": "[dalcetrapib, thioisobutyric acid S-(2-{[1-(2-ethyl-butyl)-cyclohexanecarbonyl]-amino}-phenyl) ester]", "values": [{"measurement": "event rate in the primary efficacy endpoint (cardiovascular events), dalcetrapib arm compared to the placebo arm", "setting": "all patients, 600 mg daily", "result": "lack of efficacy relative to statins alone; also recorded: did not show a significant reduction in cardiovascular events; also recorded: no evidence of reduction of the event rate"}, {"measurement": "HDL-c", "setting": "patients on treatment, dal-OUTCOMES", "result": "marked increase"}, {"measurement": "HR for events, additive genetic effect of one allele", "setting": "rs1967309, dal-Outcomes treatment arm, Cox proportional hazards", "result": "0.65 (95% CI 0.55, 0.76)"}, {"measurement": "HR (95% CI) for time to events, dalcetrapib treatment arm only, genotype comparison", "setting": "rs1967309 AA vs GG", "result": "0.40 (95% CI 0.28, 0.57) and 0.4 (0.28, 0.57)"}, {"measurement": "HR (95% CI) for time to events, dalcetrapib treatment arm only, genotype comparison", "setting": "rs1967309 GA vs GG", "result": "0.68 (95% CI 0.55, 0.84) and 0.68 (0.56, 0.84)"}, {"measurement": "Predicted response", "setting": "rs1967309 genotype AA", "result": "R"}, {"measurement": "HR for time to events, dalcetrapib treatment arm versus placebo arm", "setting": "rs1967309 genotype GA", "result": 0.94}, {"measurement": "Predicted response", "setting": "rs1967309 genotype GA", "result": "PR"}, {"measurement": "HR for time to events, dalcetrapib treatment arm versus placebo arm", "setting": "rs1967309 genotype GG", "result": 1.27}, {"measurement": "Predicted response", "setting": "rs1967309 genotype GG", "result": "NR"}, {"measurement": "HR (95% CI) for time to events, dalcetrapib treatment arm only, genotype comparison", "setting": "rs2239310 AG vs AA", "result": "0.71 (0.58,0.87)"}, {"measurement": "HR (95% CI) for time to events, dalcetrapib treatment arm only, genotype comparison", "setting": "rs2239310 GG vs AA", "result": "0.43 (0.29, 0.63)"}, {"measurement": "HR for time to events, dalcetrapib treatment arm versus placebo arm", "setting": "rs2239310 genotype AA", "result": 1.16}, {"measurement": "Predicted response", "setting": "rs2239310 genotype AA", "result": "NR"}, {"measurement": "HR for time to events, dalcetrapib treatment arm versus placebo arm", "setting": "rs2239310 genotype AG", "result": 0.96}, {"measurement": "Predicted response", "setting": "rs2239310 genotype AG", "result": "PR"}, {"measurement": "HR for time to events, dalcetrapib treatment arm versus placebo arm", "setting": "rs2239310 genotype GG", "result": 0.6}, {"measurement": "Predicted response", "setting": "rs2239310 genotype GG", "result": "R"}, {"measurement": "HR (95% CI) for time to events, dalcetrapib treatment arm only, genotype comparison", "setting": "rs2283497 AA vs CC", "result": "0.53 (0.37, 0.76)"}, {"measurement": "HR (95% CI) for time to events, dalcetrapib treatment arm only, genotype comparison", "setting": "rs2283497 CA vs CC", "result": "0.83 (0.67, 1.02)"}, {"measurement": "HR for time to events, dalcetrapib treatment arm versus placebo arm", "setting": "rs2283497 genotype AA", "result": 0.57}, {"measurement": "Predicted response", "setting": "rs2283497 genotype AA", "result": "R"}, {"measurement": "HR for time to events, dalcetrapib treatment arm versus placebo arm", "setting": "rs2283497 genotype CA", "result": 0.99}, {"measurement": "Predicted response", "setting": "rs2283497 genotype CA", "result": "PR"}, {"measurement": "HR for time to events, dalcetrapib treatment arm versus placebo arm", "setting": "rs2283497 genotype CC", "result": 1.23}, {"measurement": "Predicted response", "setting": "rs2283497 genotype CC", "result": "NR"}, {"measurement": "HR (95% CI) for time to events, dalcetrapib treatment arm only, genotype comparison", "setting": "rs2531967 AA vs GG", "result": "0.5 (0.29, 0.86)"}, {"measurement": "HR (95% CI) for time to events, dalcetrapib treatment arm only, genotype comparison", "setting": "rs2531967 GA vs GG", "result": "0.75 (0.61, 0.93)"}, {"measurement": "HR for time to events, dalcetrapib treatment arm versus placebo arm", "setting": "rs2531967 genotype AA", "result": 0.67}, {"measurement": "Predicted response", "setting": "rs2531967 genotype AA", "result": "R"}, {"measurement": "HR for time to events, dalcetrapib treatment arm versus placebo arm", "setting": "rs2531967 genotype GA", "result": 0.86}, {"measurement": "Predicted response", "setting": "rs2531967 genotype GA", "result": "PR"}, {"measurement": "HR for time to events, dalcetrapib treatment arm versus placebo arm", "setting": "rs2531967 genotype GG", "result": 1.12}, {"measurement": "Predicted response", "setting": "rs2531967 genotype GG", "result": "NR"}, {"measurement": "HR (95% CI) for time to events, dalcetrapib treatment arm only, genotype comparison", "setting": "rs3730119 AA vs GG", "result": "0.49 (0.22, 1.1)"}, {"measurement": "HR (95% CI) for time to events, dalcetrapib treatment arm only, genotype comparison", "setting": "rs3730119 GA vs GG", "result": "0.78 (0.62, 0.99)"}, {"measurement": "HR for time to events, dalcetrapib treatment arm versus placebo arm", "setting": "rs3730119 genotype AA", "result": 0.48}, {"measurement": "Predicted response", "setting": "rs3730119 genotype AA", "result": "R"}, {"measurement": "HR for time to events, dalcetrapib treatment arm versus placebo arm", "setting": "rs3730119 genotype GA", "result": 0.86}, {"measurement": "Predicted response", "setting": "rs3730119 genotype GA", "result": "PR"}, {"measurement": "HR for time to events, dalcetrapib treatment arm versus placebo arm", "setting": "rs3730119 genotype GG", "result": 1.08}, {"measurement": "Predicted response", "setting": "rs3730119 genotype GG", "result": "NR"}, {"measurement": "HR (95% CI) for time to events, dalcetrapib treatment arm only, genotype comparison", "setting": "rs4786454 AA vs GG", "result": "0.37 (0.15, 0.9)"}, {"measurement": "HR (95% CI) for time to events, dalcetrapib treatment arm only, genotype comparison", "setting": "rs4786454 GA vs GG", "result": "0.69 (0.54, 0.87)"}, {"measurement": "HR for time to events, dalcetrapib treatment arm versus placebo arm", "setting": "rs4786454 genotype AA", "result": 0.52}, {"measurement": "Predicted response", "setting": "rs4786454 genotype AA", "result": "R"}, {"measurement": "HR for time to events, dalcetrapib treatment arm versus placebo arm", "setting": "rs4786454 genotype GA", "result": 0.89}, {"measurement": "Predicted response", "setting": "rs4786454 genotype GA", "result": "PR"}, {"measurement": "HR for time to events, dalcetrapib treatment arm versus placebo arm", "setting": "rs4786454 genotype GG", "result": 1.06}, {"measurement": "Predicted response", "setting": "rs4786454 genotype GG", "result": "NR"}, {"measurement": "HR (95% CI) for time to events, dalcetrapib treatment arm only, genotype comparison", "setting": "rs8049452 AA vs GG", "result": "1.98 (1.51, 2.61)"}, {"measurement": "HR (95% CI) for time to events, dalcetrapib treatment arm only, genotype comparison", "setting": "rs8049452 GA vs GG", "result": "1.26 (0.99, 1.6)"}, {"measurement": "HR for time to events, dalcetrapib treatment arm versus placebo arm", "setting": "rs8049452 genotype AA", "result": 1.55}, {"measurement": "Predicted response", "setting": "rs8049452 genotype AA", "result": "NR"}, {"measurement": "HR for time to events, dalcetrapib treatment arm versus placebo arm", "setting": "rs8049452 genotype GA", "result": 0.97}, {"measurement": "Predicted response", "setting": "rs8049452 genotype GA", "result": "PR"}, {"measurement": "HR for time to events, dalcetrapib treatment arm versus placebo arm", "setting": "rs8049452 genotype GG", "result": 0.78}, {"measurement": "Predicted response", "setting": "rs8049452 genotype GG", "result": "R"}, {"measurement": "HR (95% CI) for time to events, dalcetrapib treatment arm only, genotype comparison", "setting": "rs8061182 AG vs AA", "result": "1.23 (0.98, 1.56)"}, {"measurement": "HR (95% CI) for time to events, dalcetrapib treatment arm only, genotype comparison", "setting": "rs8061182 GG vs AA", "result": "1.81 (1.37, 2.39)"}, {"measurement": "HR for time to events, dalcetrapib treatment arm versus placebo arm", "setting": "rs8061182 genotype AA", "result": 0.79}]}]}
